Results on two molecules are retold here after patent publication US6849598B1, “Therapeutic compositions comprising bactericidal/permeability-increasing (BPI) protein products” (XOMA, priority 1995, dated 2005).

Values after ≈ are worked out from the molar mass of the structure shown. Read-outs that look alike come from different tables or passages of the source. A value given as a limit tells only on which side of the number the result lay.

In experiment [1] the test system is E. faecium. Nature of the experiment: Antibiotic susceptibility (MIC, Sensititre Trays) with rBPI21 poloxamer formulations. As to susceptibility interpretation of MIC (superscript): key: clinically resistant (R); intermediate (I); susceptible (S). The format is cell-based. Particulars: for MIC: Enterococcus faecium, read-out: Minimum Inhibitory Concentration.
The test system of experiment [2] is A. baumannii. Nature of the experiment: Bactericidal activity in serum, broth or water, CFU after 4 hours (Example 2). Type of experiment: cell-based. The method, then: The bactericidal activity of therapeutic compositions comprising BPI protein product and either poloxamer 333 (PLURONIC P103, BASF Wyandotte Corp.) or heat-treated PLURONIC P103, was evaluated against the clinical isolates of Example 1. Therapeutic compositions comprising 160 μg/mL rBPI21 and varying concentrations of either PLURONIC P103 or heat-treated PLURONIC P103 were formulated by diluting a 2 mg/mL solution of “non-formulated” rBPI21 (in buffer comprising 5 mM sodium citrate and 150 mM NaCl, without any surfactants) with the appropriate amounts of PLURONIC P103 or heat-treated PLURONIC P103 solutions. A “formulated” rBPI21 solution containing 2 mg/mL rBPI21, 0.2% poloxamer 188 (PLURONIC F68, BASF Wyandotte Corp.), 0.002% TWEEN 80 (polysorbate 80, ICI Americas, Wilmington, Del.), 5 mM sodium citrate and 150 mM NaCl was also tested for comparison. Poloxamer control solutions containing only 0.1% PLURONIC P103 or 0.1% heat-treated PLURONIC P103, and no rBPI21, were also prepared.
A 0.1% (w/v) solution of PLURONIC P103 was prepared by stirring the PLURONIC P103 in deionized water until dissolved and filtering the solution through a […] cellulose acetate polystyrene filter unit (Corning Inc., Corning, N.Y.). […]
The bacteria to be used in the assays were grown on tryptic soy agar (TSA) plates (Remel, Catalog #01-920, Lenexa, Kans.) for 24 hours. […] A bacterial stock emulsion was prepared by emulsifying bacterial colonies in sterile deionized water to approximately 2.2 to 3.8×10^8 colony forming units (CFU)/mL as measured by a Microscan® Turbidity Meter (Dade Microscan, West Sacramento, Calif.), and diluting further by 1:10 in water. […] Following incubation, the remaining colony forming units (CFU) in each well were counted at a 10^−2 dilution by plating 10 μL from each well onto TSA plates. The TSA plates were incubated at 37° C. for 24 hours and the number of bacterial colonies were visually counted. […]

Setting [3] is: CSMHB, 16 μg/mL rBPI21 with F68.
Where [4] appears, read: CSMHB, 16 μg/mL rBPI21 with P103.
The mark [5] stands for this setting: CSMHB, 16 μg/mL rBPI21 with P104.
Where [6] appears, read: CSMHB, 16 μg/mL rBPI21 with P105.
[7] abbreviates: CSMHB, 16 μg/mL rBPI21 with P123.
The mark [8] stands for this setting: Serum, 16 μg/mL rBPI21 with F68.
Where [9] appears, read: Serum, 16 μg/mL rBPI21 with P103.
[10] abbreviates: Serum, 16 μg/mL rBPI21 with P104.
Setting [11] is: Serum, 16 μg/mL rBPI21 with P105.
Where [12] appears, read: Serum, 16 μg/mL rBPI21 with P123.

For the molecule `O=C(N[C@H](CO)[C@H](O)c1ccc([N+](=O)[O-])cc1)C(Cl)Cl` [Chloramphenicol], the “susceptibility interpretation of MIC (superscript)” value was “S” in experiment [1] (setting [3]); “S” in experiment [1] (setting [4]); “S” in experiment [1] (setting [5]); “S” in experiment [1] (setting [6]); “S” in experiment [1] (setting [7]); “I” in experiment [1] (CSMHB, Control (no BPI)). The “susceptibility interpretation of MIC (superscript)” value in experiment [1] (setting [8]) is “S”; in experiment [1] (setting [9]) it was “S”; in experiment [1] (setting [10]), “S”; in experiment [1] (setting [11]), “S”; in experiment [1] (setting [12]), “S”; in experiment [1] (Serum, Control (no BPI)) it was “S”. Also, the MIC in experiment [1] (setting [3]) was below 4 µg/mL; in experiment [1] (setting [4]) it was below 4 µg/mL; in experiment [1] (setting [5]), below 4 µg/mL; in experiment [1] (setting [6]), below 4 µg/mL; in experiment [1] (setting [7]), below 4 µg/mL; in experiment [1] (CSMHB, Control (no BPI)), 16 µg/mL (≈ 49.5 µM). For the same molecule, the MIC is 8 µg/mL (≈ 24.8 µM) in experiment [1] (setting [8]); 8 µg/mL (≈ 24.8 µM) in experiment [1] (setting [9]); 8 µg/mL (≈ 24.8 µM) in experiment [1] (setting [10]); 8 µg/mL (≈ 24.8 µM) in experiment [1] (setting [11]); 8 µg/mL (≈ 24.8 µM) in experiment [1] (setting [12]); 8 µg/mL (≈ 24.8 µM) in experiment [1] (Serum, Control (no BPI)).

B1: rBPI21: expression product of DNA encoding amino acid 1 to approximately 193 or 199 of BPI holoprotein, cysteine 132 substituted with alanine (protein, UniProt P17213 32-224, looked up, variant C132A)
chain: VNPGVVVRISQKGLDYASQQGTAALQKELKRIKIPDYSDSFKIKHLGKGHYSFYSMDIREFQLPSSQISMVPNVGLKFSISNANIKISGKWKAQKRFLKMSGNFDLSIEGMSISADLKLGSNPTSGKPTITASSCSSHINSVHVHISKSKVGWLIQLFHKKIESALRNKMNSQVCEKVTNSVSSELQPYFQTL
For the molecule B1, the “colony forming units after 4 hours” value in experiment [2] (Broth, bacteria only >5000) is reported as >5000 100's of CFUs; in experiment [2] (Serum, bacteria only >2000), >2000 100's of CFUs; in experiment [2] (Water, bacteria only >2000), 519 100's of CFUs.
